Reference: patent US20240417342A1, “METHOD FOR PRODUCING GRANULAR COMPOSITION CONTAINING GLUTATHIONE” (KANEKA CORPORATION, priority 2022, published 2024)
Like-named read-outs stand apart in the source and are kept apart here.

Experiment: Solubility in water at 20° C.
Format: physicochemical
Description: Specifically, the percentage can be expressed as the number of grams of the nitrogen-containing fertilizer component that is soluble in 100 ml of water at 20° C.

## N[C@@H](Cc1c[nH]cn1)C(=O)O [L-histidine]
  solubility in water at 20° C.: 4.2 g/100 mL
% = g per 100 ml water
  solubility in water at 20° C.: 4.2%

## CC[C@H](C)[C@H](N)C(=O)O [L-isoleucine]
  solubility in water at 20° C.: 4.0 g/100 mL
% = g per 100 ml water
  solubility in water at 20° C.: 4.0%

## NC(=O)NC1NC(=O)NC1=O (stereo not drawn) [allantoin]
  solubility in water at 20° C.: 0.5 g/100 mL
% = g per 100 ml water
  solubility in water at 20° C.: 0.5%
